Assay results: article PMC5666424, “Marine-Derived 2-Aminoimidazolone Alkaloids. Leucettamine B-Related Polyandrocarpamines Inhibit Mammalian and Protozoan DYRK & CLK Kinases” (Marine Drugs, 2017)

How the values were obtained:
Assay in all cases: KinomeScan
Type in all cases: binding
Conditions in all cases: 1 μM
TRPM6 = biological target: T1, TRPM6 (Homo sapiens, UniProt Q9BX84)
T1 construct: purchased DiscoverX (KINOMEscan)
Experimental: (§1) Assays were performed essentially as described previously. For most assays, kinase-tagged T7 phage strains were grown in parallel in 24-well blocks in an E. coli host derived from the BL21 strain. E. coli were grown to log-phase and infected with T7 phage from a frozen stock (multiplicity of infection ~0.1) and incubated with shaking at 32 °C until lysis (~90 min). The lysates were centrifuged (6000× g) and filtered (0.2 μm) to remove cell debris. The remaining kinases were produced in HEK-293 cells and subsequently tagged with DNA for qPCR detection. […] The liganded beads were blocked with excess biotin and washed with blocking buffer (SeaBlock (Pierce, ThermoFisher Scientific, Illkirch, France), 1% BSA, 0.05% Tween 20, 1 mM DTT) to remove unbound ligand and to reduce non-specific phage binding. […] An 11-point threefold serial dilution of each test compound was prepared in 100% DMSO at 100× final test concentration which and subsequently diluted to 1× in the assay. All reactions were performed in polystyrene 96-well plates in a final volume of 0.135 mL. […] The kinase concentration in the eluates was measured by qPCR.

[1] = biological target: T2, ABL1(T315I)-nonphosphorylated (Homo sapiens, UniProt P00519, T315I)
T2 construct: purchased DiscoverX (KINOMEscan)
Experimental: as §1

STK33 = biological target: T3, STK33 (Homo sapiens, UniProt Q9BYT3)
T3 construct: purchased DiscoverX (KINOMEscan)
Experimental: as §1

ERK1 = biological target: T4, ERK1 (Homo sapiens, UniProt P27361)
T4 construct: purchased DiscoverX (KINOMEscan)
Experimental: as §1

MAP4K4 = biological target: T5, MAP4K4 (Homo sapiens, UniProt O95819)
T5 construct: purchased DiscoverX (KINOMEscan)
Experimental: as §1

BLK = biological target: T6, BLK (Homo sapiens, UniProt P51451)
T6 construct: purchased DiscoverX (KINOMEscan)
Experimental: as §1

CDK4-cyclinD3 = biological target: T7, CDK4-cyclinD3 (Homo sapiens, UniProt P11802)
T7 construct: purchased DiscoverX (KINOMEscan)
T7 sequence (P11802 whole entry): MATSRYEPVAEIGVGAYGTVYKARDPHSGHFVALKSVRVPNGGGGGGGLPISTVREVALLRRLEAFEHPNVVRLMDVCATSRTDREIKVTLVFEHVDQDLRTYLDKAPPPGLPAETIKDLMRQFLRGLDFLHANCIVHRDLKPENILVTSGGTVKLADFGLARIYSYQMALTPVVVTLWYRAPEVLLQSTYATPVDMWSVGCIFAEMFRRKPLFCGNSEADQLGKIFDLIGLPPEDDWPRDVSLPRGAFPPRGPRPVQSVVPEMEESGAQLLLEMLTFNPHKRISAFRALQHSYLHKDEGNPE
T7 sequence (P30281 whole entry partner): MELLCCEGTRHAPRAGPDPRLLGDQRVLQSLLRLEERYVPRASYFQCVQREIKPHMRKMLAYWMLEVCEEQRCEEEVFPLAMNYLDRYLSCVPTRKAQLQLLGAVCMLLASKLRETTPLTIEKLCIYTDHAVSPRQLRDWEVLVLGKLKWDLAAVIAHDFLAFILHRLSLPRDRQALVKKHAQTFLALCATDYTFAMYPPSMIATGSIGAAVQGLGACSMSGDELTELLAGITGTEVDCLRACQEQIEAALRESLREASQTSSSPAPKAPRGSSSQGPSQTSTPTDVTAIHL
Experimental: as §1

DRAK1 = biological target: T8, DRAK1 (Homo sapiens, UniProt Q9UEE5)
T8 construct: purchased DiscoverX (KINOMEscan)
Experimental: as §1

TTK = biological target: T9, TTK (Homo sapiens, UniProt P33981)
T9 construct: purchased DiscoverX (KINOMEscan)
Experimental: as §1

DYRK1B = DYRK1B (Homo sapiens, UniProt Q9Y463)
Experimental: as §1

FGFR4 = biological target: T10, FGFR4 (Homo sapiens, UniProt P22455)
T10 construct: purchased DiscoverX (KINOMEscan)
Experimental: as §1

CLK3 = biological target: T11, CLK3 (Homo sapiens, UniProt P49761)
T11 construct: purchased DiscoverX (KINOMEscan)
Experimental: as §1

MARK3 = biological target: T12, MARK3 (Homo sapiens, UniProt P27448)
T12 construct: purchased DiscoverX (KINOMEscan)
Experimental: as §1

AURKC = biological target: T13, AURKC (Homo sapiens, UniProt Q9UQB9)
T13 construct: purchased DiscoverX (KINOMEscan)
T13 sequence (Q9UQB9 whole entry): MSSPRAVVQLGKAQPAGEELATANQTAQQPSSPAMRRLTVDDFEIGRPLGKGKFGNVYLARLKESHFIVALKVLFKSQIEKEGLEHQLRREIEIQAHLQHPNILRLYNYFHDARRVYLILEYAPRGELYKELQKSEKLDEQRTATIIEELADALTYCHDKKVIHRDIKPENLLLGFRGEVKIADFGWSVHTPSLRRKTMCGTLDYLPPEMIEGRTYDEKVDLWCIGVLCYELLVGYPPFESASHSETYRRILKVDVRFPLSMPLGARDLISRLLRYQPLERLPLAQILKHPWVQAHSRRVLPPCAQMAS
Experimental: as §1

MEK5 = biological target: T14, MEK5 (Homo sapiens, UniProt Q13163)
T14 construct: purchased DiscoverX (KINOMEscan)
T14 sequence (Q13163 whole entry): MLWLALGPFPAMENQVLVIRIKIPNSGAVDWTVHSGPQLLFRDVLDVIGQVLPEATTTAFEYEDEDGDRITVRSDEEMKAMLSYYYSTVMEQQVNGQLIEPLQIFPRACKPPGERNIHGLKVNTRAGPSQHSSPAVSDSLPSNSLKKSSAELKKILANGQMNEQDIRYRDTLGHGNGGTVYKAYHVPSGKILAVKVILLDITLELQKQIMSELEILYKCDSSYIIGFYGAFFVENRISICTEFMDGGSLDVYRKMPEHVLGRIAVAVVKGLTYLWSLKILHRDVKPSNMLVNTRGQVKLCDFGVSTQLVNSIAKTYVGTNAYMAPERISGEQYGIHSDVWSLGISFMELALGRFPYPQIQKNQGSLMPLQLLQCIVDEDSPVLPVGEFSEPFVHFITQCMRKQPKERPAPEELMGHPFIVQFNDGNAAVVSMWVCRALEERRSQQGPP
Experimental: as §1

CDKL2 = biological target: T15, CDKL2 (Homo sapiens, UniProt Q92772)
T15 construct: purchased DiscoverX (KINOMEscan)
Experimental: as §1

MET = biological target: T16, MET (Homo sapiens, UniProt P08581)
T16 construct: purchased DiscoverX (KINOMEscan)
Experimental: as §1

AMPK-alpha2 = biological target: T17, AMPK-alpha2 (Homo sapiens, UniProt P54646)
T17 construct: purchased DiscoverX (KINOMEscan)
Experimental: as §1

EPHB2 = biological target: T18, EPHB2 (Homo sapiens, UniProt P29323)
T18 construct: purchased DiscoverX (KINOMEscan)
Experimental: as §1

[2] = biological target: T19, ABL1(F317I)-phosphorylated (Homo sapiens, UniProt P00519, F317I)
T19 construct: purchased DiscoverX (KINOMEscan)
Experimental: as §1

YSK4 = biological target: T20, YSK4 (Homo sapiens, UniProt Q56UN5)
T20 construct: purchased DiscoverX (KINOMEscan)
Experimental: as §1

EGFR = biological target: T21, EGFR (Homo sapiens, UniProt P00533)
T21 construct: purchased DiscoverX (KINOMEscan)
T21 sequence (P00533 25-1210): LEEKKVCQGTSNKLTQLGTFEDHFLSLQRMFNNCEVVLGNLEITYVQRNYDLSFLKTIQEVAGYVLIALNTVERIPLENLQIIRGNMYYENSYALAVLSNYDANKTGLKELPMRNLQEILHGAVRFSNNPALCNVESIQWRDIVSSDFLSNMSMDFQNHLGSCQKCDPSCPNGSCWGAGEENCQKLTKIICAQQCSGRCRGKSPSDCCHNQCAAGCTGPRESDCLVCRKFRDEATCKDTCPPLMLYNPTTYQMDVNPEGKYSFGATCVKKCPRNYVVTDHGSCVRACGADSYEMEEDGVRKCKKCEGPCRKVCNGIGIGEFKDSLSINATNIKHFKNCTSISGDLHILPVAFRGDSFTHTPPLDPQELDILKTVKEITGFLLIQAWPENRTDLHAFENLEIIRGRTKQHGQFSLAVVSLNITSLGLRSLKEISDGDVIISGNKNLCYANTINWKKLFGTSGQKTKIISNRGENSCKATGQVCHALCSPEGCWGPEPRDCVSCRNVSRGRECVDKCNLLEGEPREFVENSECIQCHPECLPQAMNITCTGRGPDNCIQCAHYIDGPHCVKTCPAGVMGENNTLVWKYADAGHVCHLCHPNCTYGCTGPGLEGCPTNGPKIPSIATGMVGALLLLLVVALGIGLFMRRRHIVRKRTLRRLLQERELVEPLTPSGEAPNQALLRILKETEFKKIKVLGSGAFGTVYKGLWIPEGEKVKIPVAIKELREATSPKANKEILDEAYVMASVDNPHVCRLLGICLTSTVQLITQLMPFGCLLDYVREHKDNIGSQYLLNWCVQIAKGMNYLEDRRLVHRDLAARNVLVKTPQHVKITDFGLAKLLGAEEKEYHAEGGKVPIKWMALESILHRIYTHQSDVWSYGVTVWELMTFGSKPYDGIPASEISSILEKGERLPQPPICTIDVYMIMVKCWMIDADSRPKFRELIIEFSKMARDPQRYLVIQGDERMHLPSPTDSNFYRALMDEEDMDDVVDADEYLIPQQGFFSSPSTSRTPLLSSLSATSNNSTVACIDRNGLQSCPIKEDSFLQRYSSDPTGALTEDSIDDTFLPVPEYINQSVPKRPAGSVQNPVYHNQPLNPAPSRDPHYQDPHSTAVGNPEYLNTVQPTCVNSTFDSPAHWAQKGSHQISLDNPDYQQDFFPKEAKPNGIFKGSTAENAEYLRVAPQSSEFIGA
Experimental: as §1

DMPK2 = biological target: T22, DMPK2 (Homo sapiens, UniProt Q6DT37)
T22 construct: purchased DiscoverX (KINOMEscan)
Experimental: as §1

MUSK = biological target: T23, MUSK (Homo sapiens, UniProt O15146)
T23 construct: purchased DiscoverX (KINOMEscan)
T23 sequence (O15146 24-869): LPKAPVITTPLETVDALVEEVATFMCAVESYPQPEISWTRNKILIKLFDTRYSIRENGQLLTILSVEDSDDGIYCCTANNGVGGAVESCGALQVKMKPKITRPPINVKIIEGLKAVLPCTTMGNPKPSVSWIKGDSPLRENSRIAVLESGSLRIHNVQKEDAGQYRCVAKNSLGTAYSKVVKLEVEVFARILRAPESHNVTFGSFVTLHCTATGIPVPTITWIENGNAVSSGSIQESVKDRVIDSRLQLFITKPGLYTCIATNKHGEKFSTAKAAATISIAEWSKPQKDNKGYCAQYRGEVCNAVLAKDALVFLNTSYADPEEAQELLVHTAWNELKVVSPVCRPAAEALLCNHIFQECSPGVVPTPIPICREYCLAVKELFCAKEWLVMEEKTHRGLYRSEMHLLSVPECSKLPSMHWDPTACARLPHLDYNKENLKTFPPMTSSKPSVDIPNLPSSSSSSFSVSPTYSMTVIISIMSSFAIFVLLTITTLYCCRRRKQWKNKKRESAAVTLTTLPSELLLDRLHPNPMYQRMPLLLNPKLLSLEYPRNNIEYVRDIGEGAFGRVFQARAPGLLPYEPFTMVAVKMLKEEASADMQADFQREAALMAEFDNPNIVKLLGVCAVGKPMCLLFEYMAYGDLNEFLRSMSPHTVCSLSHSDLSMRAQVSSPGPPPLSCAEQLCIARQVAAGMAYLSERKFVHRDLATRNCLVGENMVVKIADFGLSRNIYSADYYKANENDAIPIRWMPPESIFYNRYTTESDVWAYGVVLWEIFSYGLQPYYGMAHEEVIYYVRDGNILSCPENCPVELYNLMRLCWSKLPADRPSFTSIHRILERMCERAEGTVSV
Experimental: as §1

TLK1 = biological target: T24, TLK1 (Homo sapiens, UniProt Q9UKI8)
T24 construct: purchased DiscoverX (KINOMEscan)
Experimental: as §1

CDKL1 = biological target: T25, CDKL1 (Homo sapiens, UniProt Q00532)
T25 construct: purchased DiscoverX (KINOMEscan)
Experimental: as §1

MRCKB = biological target: T26, MRCKB (Homo sapiens, UniProt Q9Y5S2)
T26 construct: purchased DiscoverX (KINOMEscan)
Experimental: as §1

[3] = biological target: T27, ABL1(Q252H)-phosphorylated (Homo sapiens, UniProt P00519, Q252H)
T27 construct: purchased DiscoverX (KINOMEscan)
Experimental: as §1

CDC2L2 = biological target: T28, CDC2L2 (Homo sapiens, UniProt Q9UQ88)
T28 construct: purchased DiscoverX (KINOMEscan)
T28 sequence (Q9UQ88 whole entry): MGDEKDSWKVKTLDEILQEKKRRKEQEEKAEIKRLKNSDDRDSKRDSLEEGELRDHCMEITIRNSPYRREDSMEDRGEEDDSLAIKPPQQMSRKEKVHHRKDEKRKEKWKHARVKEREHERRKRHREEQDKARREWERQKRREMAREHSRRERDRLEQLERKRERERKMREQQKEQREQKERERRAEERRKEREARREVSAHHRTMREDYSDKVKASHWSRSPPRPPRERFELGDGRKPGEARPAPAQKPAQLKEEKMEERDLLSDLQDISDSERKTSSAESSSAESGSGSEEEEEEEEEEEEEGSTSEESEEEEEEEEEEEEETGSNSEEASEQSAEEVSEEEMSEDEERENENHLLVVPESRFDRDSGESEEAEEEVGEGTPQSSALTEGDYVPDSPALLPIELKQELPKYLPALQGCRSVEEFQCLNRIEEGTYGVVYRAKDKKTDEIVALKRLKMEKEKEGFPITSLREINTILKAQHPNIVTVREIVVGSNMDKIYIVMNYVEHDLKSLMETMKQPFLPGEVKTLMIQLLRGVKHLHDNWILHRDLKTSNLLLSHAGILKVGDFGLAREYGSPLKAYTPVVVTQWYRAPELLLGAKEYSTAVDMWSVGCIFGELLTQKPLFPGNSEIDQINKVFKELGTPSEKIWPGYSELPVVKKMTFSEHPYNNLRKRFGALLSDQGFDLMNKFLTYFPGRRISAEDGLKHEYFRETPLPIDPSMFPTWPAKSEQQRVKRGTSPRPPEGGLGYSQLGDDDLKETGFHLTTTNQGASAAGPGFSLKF
Experimental: as §1

ERBB4 = biological target: T29, ERBB4 (Homo sapiens, UniProt Q15303)
T29 construct: purchased DiscoverX (KINOMEscan)
Experimental: as §1

KIT(D816H) = biological target: T30, KIT(D816H) (Homo sapiens, UniProt P10721, D816H)
T30 construct: purchased DiscoverX (KINOMEscan)
Experimental: as §1

NDR2 = biological target: T31, NDR2 (Homo sapiens, UniProt Q9Y2H1)
T31 construct: purchased DiscoverX (KINOMEscan)
Experimental: as §1

ULK2 = biological target: T32, ULK2 (Homo sapiens, UniProt Q8IYT8)
T32 construct: purchased DiscoverX (KINOMEscan)
Experimental: as §1

LTK = biological target: T33, LTK (Homo sapiens, UniProt P29376)
T33 construct: purchased DiscoverX (KINOMEscan)
Experimental: as §1

SRPK1 = biological target: T34, SRPK1 (Homo sapiens, UniProt Q96SB4)
T34 construct: purchased DiscoverX (KINOMEscan)
Experimental: as §1

CDK9 = biological target: T35, CDK9 (Homo sapiens, UniProt P50750)
T35 construct: purchased DiscoverX (KINOMEscan)
Experimental: as §1

MAP4K5 = biological target: T36, MAP4K5 (Homo sapiens, UniProt Q9Y4K4)
T36 construct: purchased DiscoverX (KINOMEscan)
T36 sequence (Q9Y4K4 whole entry): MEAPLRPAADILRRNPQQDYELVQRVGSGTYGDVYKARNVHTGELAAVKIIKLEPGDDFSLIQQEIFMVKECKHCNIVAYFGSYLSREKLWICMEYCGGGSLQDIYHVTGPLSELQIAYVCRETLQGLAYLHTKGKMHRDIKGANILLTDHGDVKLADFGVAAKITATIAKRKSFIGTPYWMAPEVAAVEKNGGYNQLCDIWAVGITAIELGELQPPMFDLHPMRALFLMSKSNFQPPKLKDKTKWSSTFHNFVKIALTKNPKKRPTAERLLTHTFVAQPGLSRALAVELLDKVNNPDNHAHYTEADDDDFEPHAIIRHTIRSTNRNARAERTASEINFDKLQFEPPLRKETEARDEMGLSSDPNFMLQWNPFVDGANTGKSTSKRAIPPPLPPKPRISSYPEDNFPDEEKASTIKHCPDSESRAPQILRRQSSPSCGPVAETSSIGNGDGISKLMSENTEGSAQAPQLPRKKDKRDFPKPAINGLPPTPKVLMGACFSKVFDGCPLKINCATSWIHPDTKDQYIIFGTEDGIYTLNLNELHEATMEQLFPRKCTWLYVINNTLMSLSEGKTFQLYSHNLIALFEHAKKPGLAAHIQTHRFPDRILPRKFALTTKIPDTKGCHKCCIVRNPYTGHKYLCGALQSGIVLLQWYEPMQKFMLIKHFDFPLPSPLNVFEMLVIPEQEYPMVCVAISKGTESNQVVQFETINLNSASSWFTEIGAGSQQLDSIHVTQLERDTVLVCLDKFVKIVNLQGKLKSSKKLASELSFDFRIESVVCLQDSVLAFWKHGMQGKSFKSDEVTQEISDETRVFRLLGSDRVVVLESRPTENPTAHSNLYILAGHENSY
Experimental: as §1

Compound: COc1cc(/C=C2\N=C(N)NC2=O)ccc1O [Polyandrocarpamine A]
- Score (TRPM6): 100
- Score [1]: 67
- Score (STK33): 100
- Score (ERK1): 100
- Score (MAP4K4): 98
- Score (BLK): 100
- Score (CDK4-cyclinD3): 98
- Score (DRAK1): 42
- Score (TTK): 100
- Score (DYRK1B): 25
- Score (FGFR4): 98
- Score (CLK3): 69
- Score (MARK3): 100
- Score (AURKC): 99
- Score (MEK5): 78
- Score (CDKL2): 100
- Score (MET): 100
- Score (AMPK-alpha2): 87
- Score (EPHB2): 79
- Score [2]: 86
- Score (YSK4): 100
- Score (EGFR): 99
- Score (DMPK2): 99
- Score (MUSK): 56
- Score (TLK1): 94
- Score (CDKL1): 100
- Score (MRCKB): 100
- Score [3]: 100
- Score (CDC2L2): 100
- Score (ERBB4): 99
- Score (KIT(D816H)): 100
- Score (NDR2): 91
- Score (ULK2): 100
- Score (LTK): 100
- Score (SRPK1): 100
- Score (CDK9): 88
- Score (MAP4K5): 100
